Source: publication PMC10766943, “Synthesis, characterization, Hirshfeld surface analysis, antioxidant and selective β-glucuronidase inhibitory studies of transition metal complexes of hydrazide based Schiff base ligand” (Scientific Reports, 2024)

Experiments:
β-glucuronidase = conditions: cited from earlier work
β-glucuronidase enzyme = molecular target: T1, β-glucuronidase enzyme (Bos taurus, UniProt A3KMY8); assay: β-Glucuronidase inhibitory activity (p-nitrophenyl-β-D-glucuronide, 405 nm); assay type: biochemical; conditions: Conc. 0.05 mM
T1 sequence (A3KMY8 24-652): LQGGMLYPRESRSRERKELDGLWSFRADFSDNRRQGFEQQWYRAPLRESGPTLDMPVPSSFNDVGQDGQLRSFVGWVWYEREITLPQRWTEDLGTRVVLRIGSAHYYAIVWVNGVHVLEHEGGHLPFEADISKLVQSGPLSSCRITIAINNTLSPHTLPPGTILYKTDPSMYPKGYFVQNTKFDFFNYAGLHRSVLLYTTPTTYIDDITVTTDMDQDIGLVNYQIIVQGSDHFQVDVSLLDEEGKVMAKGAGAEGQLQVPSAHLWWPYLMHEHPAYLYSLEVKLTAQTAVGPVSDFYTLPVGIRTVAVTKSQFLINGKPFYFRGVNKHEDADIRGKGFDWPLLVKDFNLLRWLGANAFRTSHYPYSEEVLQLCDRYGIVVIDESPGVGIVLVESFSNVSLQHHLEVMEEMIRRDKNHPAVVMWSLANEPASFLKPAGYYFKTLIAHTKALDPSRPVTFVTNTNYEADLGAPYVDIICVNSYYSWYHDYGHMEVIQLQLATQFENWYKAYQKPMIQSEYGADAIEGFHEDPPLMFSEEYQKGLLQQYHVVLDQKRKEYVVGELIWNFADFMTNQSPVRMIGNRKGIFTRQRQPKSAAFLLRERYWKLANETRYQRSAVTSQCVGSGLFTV
Protocol: β-Glucuronidase inhibitory activity by hydrazide Schiff base ligand (H-AHMB) and its metal (II) complexes was investigated using standard procedure. […] According to the procedure 185 µL of 0.1 M acetate buffer, 5 µL compound to be tested and 10 µL of enzyme solution were mixed and incubated at 37 °C for 30 min. SpectraMax plus 384, Molecular Devices, USA was used to read on a multiplate reader at 405 nm after the addition of 0.4 mM p-nitrophenyl-β-D-glucuronide (50 µL). All experiments were performed in triplicate.

DPPH radical scavenging [1] = conditions: Conc. 0.05 mM
DPPH radical scavenging [2] = conditions: for IC50: DPPH scavenging
Protocol: The synthetic Schiff base ligand and its metal complexes were tested for their ability to scavenge DPPH radicals using the methodology described by Soare, Dinis, Cunha, and Almeida in 1997[64]. Initially, 1 mL of 0.2 mM DPPH dissolved in methanol was combined with 0.1 mL of each sample at 250, 500, 750, and 1000 µg/mL concentrations. For 20 min, the reaction mixture was kept at 28 °C and kept in the dark. Methanol served as the control, which had all the components but no sample. A UV/Vis spectrophotometer was used to detect the absorbance at 517 nm in order to assess the DPPH radical scavenging activity. For comparison, the DPPH radical scavenging capacity of ascorbic acid was also determined. %Inhibitioneffect=Ac-As/Ac×100
Ac = Absorbance by the control, As = Absorbance by the sample[37].

| Compound | inhibition of the β-glucuronidase enzyme (β-glucuronidase) | % inhibition (β-glucuronidase enzyme) [%] | % Radical scavenging activity (DPPH radical scavenging [1]) [%] | IC50 (DPPH radical scavenging [2]) [µM] | antioxidant potential against DPPH free radicals (in words) (DPPH radical scavenging [2]) |
| --- | --- | --- | --- | --- | --- |
| CC(=O)O[C@@H]1C(=O)O[C@H]2[C@@H]1OC(=O)[C@@H]2OC(C)=O [2,5-di-O-acetyl-D-glucaro-1,4:6,3-Dilactone] | marked inhibition |  |  |  |  |
| O=C[C@H](O)[C@H]1OC(=O)[C@@H](O)[C@H]1O [D-glucurono-γ-lactone] | marked inhibition |  |  |  |  |
| O=C1OC(C(O)C(=O)O)C(O)C1O [D-saccharic acid-1,4-lactone, reference compound] |  | 89.4 |  |  |  |
| O=C(O)c1cc(O)c(O)c(O)c1 [Gallic acid, reference compound] |  |  | 93.13 | 63 ± 0.43 |  |
| COc1cc(C=NNC(=O)c2ccccc2N)ccc1O [H-AHMB, N′-[(4-hydroxy-3-methoxyphenyl)methylidene] 2-aminobenzohydrazide] |  |  | 22.97 |  | inactive |
| Cobalt adduct with N′-[(4-hydroxy-3-methoxyphenyl)methylidene] 2-aminobenzohydrazide [Co-AHMB] |  | 78.8 | 88.46 | 98.2 ± 1.78 |  |
| Copper adduct with N′-[(4-hydroxy-3-methoxyphenyl)methylidene] 2-aminobenzohydrazide [Cu-AHMB] |  | 73.3 | 84.29 | 183 ± 6.6 |  |
| Nickel adduct with N′-[(4-hydroxy-3-methoxyphenyl)methylidene] 2-aminobenzohydrazide [Ni-AHMB] |  | 96.0 | 52.40 | 467 ± 2.9 |  |
| Zinc adduct with N′-[(4-hydroxy-3-methoxyphenyl)methylidene] 2-aminobenzohydrazide [Zn-AHMB] |  | 98.3 | 49.16 |  |  |
